# Several values for one entry are separate records, joined by “and”; a condition that tells them apart may be missing. Equal values may be shown once.
# Assays:
# [1] = test system: L3.6pl pancreatic cancer cells; experiment: Orthotopic L3.6pl pancreatic tumour model in nude mice: pancreatic tumour weight and liver metastases; type: in vivo, human; conditions: for Liver Metastases: animals with metastases/animals
# From the text: (§1) The test method has been described by C J Bruns et al., Cancer Research, 2000, 60, 2926-2935 and involves the injection of pancreatic tumour cells derived from the COLO 357 human pancreatic cancer cell line into pancreas tissue in a group of nude mice and an evaluation of tumour growth and metastasis into liver node tissue. L3.6pl pancreatic cancer cells were obtained after successive cycles of cell selection from nude mouse tumour tissue that developed after injection of COLO 357 human pancreatic cancer cells. L3.6pl cancer cells (1×10^6 cells) were injected into the pancreas of each animal in several groups of male athymic nude mice (n=8 to 10 per group). […] On the days where both agents were given, the gemcitabine was dosed at least 1 hour before test compound Src-1. A control group of 10 mice received intraperitoneal injections of an equivalent volume of saline according to the same treatment schedule as the combination group. The animals were sacrificed 32 days after tumour cell injection. The pancreatic tumour weight was measured. The incidence of liver metastases was evaluated. All macroscopically enlarged liver nodules were evaluated by histopathology to confirm tumour metastasis.
# [2] = Body weight of treated nude mice in the L3.6pl pancreatic tumour model; type: in vivo, male athymic nude mice
# Method: as §1, with “L3.6pl” for “The test method has been described by C J Bruns et al., Cancer Research, 2000, 60, 2926-2935 and involves the injection of pancreatic tumour cells derived from the COLO 357 human pancreatic cancer cell line into pancreas tissue in a group of nude mice and an evaluation of tumour growth and metastasis into liver node tissue. L3.6pl”
# [3] = Src-1 25 mg/kg orally by gavage daily, days 1-5 and 8-12, 32 days after tumour cell injection
# [4] = Src-1 50 mg/kg orally by gavage daily, days 1-5 and 8-12, 32 days after tumour cell injection
SMILES,"Average Tumour Weight +/− std dev [1, 3] [mg]","Liver Metastases [1, 3]","Average Tumour Weight +/− std dev [1, 4] [mg]","Liver Metastases [1, 4]","Average Body Weight +/− std dev ([2]; Src-1 25 mg/kg orally by gavage daily, days 1-5 and 8-12) [g]","Average Body Weight +/− std dev ([2]; Src-1 50 mg/kg orally by gavage daily, days 1-5 and 8-12) [g]","Liver Metastases ([1]; gemcitabine 100 mg/kg intraperitoneal twice weekly (days 2, 5, 9, 12), sacrificed 32 days after tumour cell injection, monohydrochloride)","Average Tumour Weight +/− std dev ([1]; gemcitabine 100 mg/kg intraperitoneal twice weekly, 32 days after tumour cell injection) [mg]",Average Body Weight +/− std dev ([2]; gemcitabine 100 mg/kg intraperitoneal twice weekly) [g]
"COc1ccc(Cl)c(Nc2ncnc3cc(OCC4CCN(C)CC4)c(OC)cc23)c1 [Src-1, 4-(2-chloro-5-methoxyanilino)-6-methoxy-7-(N-methylpiperidin-4-ylmethoxy)quinazoline]",816 ± 118,0/9,827 ± 176,0/9,22.6 ± 1.4,22.3 ± 6.8,,,
"Cl.Nc1ccn([C@@H]2O[C@H](CO)[C@@H](O)C2(F)F)c(=O)n1 [gemcitabine, 2′-deoxy-2′,2′-difluorocytidine monohydrochloride]",,,,,,,⅕ and 1/5,393 ± 68,22.7 ± 1.5
